{"source": "patent US20210395327A1", "about": "“Growth Hormone-Releasing Hormone Antagonists and Uses Thereof” (United States Government As Represented By The Department …, priority 2019, published 2021)", "test_system": "gene expression in normal mouse lung fibroblasts", "assay": "RNAseq of cultured lung fibroblasts", "type": "cell-based", "settings": "1 and 5 μM MIA-602, not exposed to bleomycin", "description": "Lung fibroblasts. Newborn mouse lung fibroblasts (Mlg 2908) were obtained from the American Type Culture Collection, Manassas, Va. and cultured in Eagle's minimal essential medium. Cells were grown in 6-well plates before incubation with 1 or 5 μM MIA-602 or vehicle, RNA isolation, and oxygen consumption measurements.\nRNA was extracted from cultured fibroblasts using a Direct-zol RNA MicroPrep kit (R2060; Zymo Research, Irvine, Calif.). Cells were washed with PBS and lysed in TRIreagent™, then purified using Direct-zol RNA columns. DNase I treatment was done in columns and RNA eluted in DNase/Rnase-free water.\nRNAseq and Pathway analyses. At least 10 ng of total RNA was used as input for the KAPA RNA HyperPrep Kit with RiboErase (HMR) to create ribosomal RNA-depleted sequencing libraries, including sample indexing, to allow for multiplexing. Cluster generation and sequencing was done on the Illumina cBOT and HiSeq 3000 using reagents provided by Illumina, finally generating >32 million single-end 100 base reads per sample.", "note": "Non-standard residues stand in square brackets, D forms with d. Residues, ends and D or L forms follow the SMILES beside them. *: point of attachment. Phe(F5) = N[C@@H](Cc1c(F)c(F)c(F)c(F)c1F)C(=O)O; hArg = N=C(N)NCCCC[C@H](N)C(=O)O; 12Ado = NCCCCCCCCCCCC(=O)O; Nle = CCCC[C@H](N)C(=O)O; Orn = NCCC[C@H](N)C(=O)O; Abu = CC[C@H](N)C(=O)O; PhAc = O=C(Cc1ccccc1)*"}
{"smiles": "CCCC[C@H](NC(=O)[C@@H](NC(=O)[C@H](CC(=O)O)NC(=O)[C@H](CCC(N)=O)NC(=O)[C@H](CC(C)C)NC(=O)[C@H](CC(C)C)NC(=O)[C@H](CCCN)NC(=O)[C@H](Cc1c[nH]cn1)NC(=O)[C@H](C)NC(=O)[C@H](CO)NC(=O)[C@H](CC(C)C)NC(=O)[C@H](CCC(N)=O)NC(=O)[C@H](CC)NC(=O)[C@H](CC(C)C)NC(=O)[C@@H](NC(=O)[C@H](CCCN)NC(=O)[C@H](Cc1c[nH]cn1)NC(=O)[C@H](Cc1ccc(OC)cc1)NC(=O)[C@H](CCCCNC(=N)N)NC(=O)[C@H](C)NC(=O)[C@@H](NC(=O)[C@H](Cc1c(F)c(F)c(F)c(F)c1F)NC(=O)[C@@H](NC(=O)[C@H](C)NC(=O)[C@H](CC(=O)O)NC(=O)[C@@H](CCCNC(=N)N)NC(=O)[C@H](Cc1ccc(O)cc1)NC(=O)CCCCCCCCCCCNC(=O)Cc1ccccc1)[C@@H](C)CC)[C@@H](C)O)C(C)C)[C@@H](C)CC)C(=O)N[C@H](CCCNC(=N)N)C(=O)N[C@@H](CCCCNC(=N)N)C(N)=O", "note": "[MIA-602, PhAC-Ada, Tyr D-Arg, Asp, Ala, Ile, 5FPhe, Thr, Ala, Har, Tyr(Me), His, Orn, Val, Leu, Abu, Gin, Leu, Ser, Ala, His, Om, Leu, Leu, Gin, Asp, Ile; Nle, D-Arg, Har NH2, reference compound] ({PhAc-12Ado}-Y[dR]DAI[Phe(F5)]TA[hArg]Y(Me)H[Orn]VL[Abu]QLSAH[Orn]LLQDI[Nle][dR][hArg]-NH2)", "values": [{"measurement": "fibroblast gene expression, RNA-seq (in words)", "result": "significant downregulation of genes involved in collagen fibril organization, cell-matrix adhesion and elastic fiber assembly"}]}
